Results as given in patent US4870097A, “Pharmaceutical use of derivatives of tryptophan” (priority 1984, dated 1989).

Key:
[1] = tested on: guinea pig gall bladder contracted with CCK-8; experiment: Anti-CCK activity on guinea pig gall bladders in vitro; type: biochemical; details: CCK-8 10 ng/ml, concentration antagonising 50% of contracting effect
How it was run: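 Longitudinal gall bladder strips in Krebs at 32° C, gassed with O2/CO2 95:5, were contracted with CCK-8 at 10 ng/ml and contractions recorded isometrically via force transducer. ED50 in mcg/ml is the compound concentration antagonising 50% of CCK contraction, derived by regression over at least three experiments.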

[2] = tested on: analgesic activity of DALA; experiment: Tail Flick test: increase in the analgesic activity of DALA (i.c.v.); type: in vivo, rats; set-up: analgesic activity (Tail Flick), 10' / analgesic activity (Tail Flick), 20' / analgesic activity (Tail Flick), 30' / analgesic activity (Tail Flick), 45' / analgesic activity (Tail Flick), 60' / analgesic activity (Tail Flick), AVERAGE: scale not given here; details: for analgesic activity (Tail Flick), AVERAGE: average 10'-60'
Experimental: In order to check one of the possible mechanisms for the action of the compounds of the invention, that is, their possible inhibition of the enzymatic degradation of endogenous enkephalins, the following experiment was carried out:
A cannula was implanted in the right lateral ventricle of male rats having a weight of 150-200 g (groups of five animals were used) in order to allow the intracerebroventricular (i.c.v.) administration of drugs according to the method of Noble et al (Life Science 6, (1970) 281-291).
The animals were subsequently treated (i.c.v.) with 3 μg of D-ala-methionine-enkephalinamide (DALA) immediately after an injection (i.c.v.) of the compounds under study at the doses given in Table 4. Analgesia was tested for by the Tail Flick method already mentioned, at the times

[3] = tested on: activity of analgesic drugs; experiment: Hot plate test: potentiation of analgesic drugs; type: in vivo, rats
Experimental: The method is that described by Eddy et al. (J. Pharmac. Exp. Ther. 107, 385 (1953)).
Groups of five male rats having a weight of about 150 g and which have not been fasting are used.
The animals are placed on a metal plate which is on the bottom of a transparent cylinder heated to 55°±1° C. by an azeotropic boiling mixture (1:1 acetone-ethyl formate). The time which passes between the moment at which the animal is placed on the hot plate and the moment at which it licks its feet or tries to jump out of the cylinder is defined as the reaction time. The control reaction time is measured 10 and 5 minutes before the administration of the drugs and 10, 20, 30, 45, 60, 90 minutes afterwards. The animals are left on the plate for a maximum period of 30 seconds.
The response to the administration of the product is considered positive if at least a doubling of the normal reaction time is seen. The results obtained are given in Table 2 which records the groups treated, the dose administered and the stay times on the plate expressed as the number of positive responses over the number treated.

endogenous opiates = experiment: Tail Flick Test after transcutaneous shock: analgesic activity of endogenous opiates; type: in vivo, rats; details: for Average latency, 5': 5' after electric shock; for Average latency, 10': 10' after electric shock; for Average latency, 15': 15' after electric shock
Experimental: Influence of several of the compounds of the invention on the analgesic activity of endogenous opiates released under transcutaneous shock in rats measured by the Tail Flick Test
The method is that described by Lewis et al. (J. Neurosc. 1, 358 (1981). Male rats having a weight of about 200 g, which have not been fasting, are used.
The animals are stressed by the application to the front leg of a 60 Hz-2.5 mA current in pulses of a duration of one second every five seconds for 20 minutes.
This stress regime causes the release of endogenous opiates.

[4] = tested on: analgesic activity of morphine; experiment: Tail Flick Test: increase in the analgesic effect of morphine; type: in vivo, rats
How it was run: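 Male non-fasted rats, 150-200 g; heat source (75 °C) on tail, latency to tail movement timed, 8 s cut-off. Measured before and 10, 20, 30, 45, 60, 90 min after analgesic dosing; percentage variation per animal, averaged over groups of five.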

[5] = oxyphenylbutazone 50 + C. 33 5 mg/kg i.p.
[6] = oxyphenylbutazone 50 + C. 33 10 mg/kg i.p.
[7] = oxyphenylbutazone 50 + C. 33 20 mg/kg i.p.

## O=C(N[C@@H](Cc1c[nH]c2ccccc12)C(=O)O)OC(c1ccccc1)c1ccccc1 [Compound 33]
[1]
  Anti CCK-8 activity, ED50: 76.3 mg/L
[2]; 10(D) + 0.001 mg/kg (ICV)
  analgesic activity (Tail Flick), 10': 64.12
  analgesic activity (Tail Flick), 20': 77.56
  analgesic activity (Tail Flick), 30': 72.7
  analgesic activity (Tail Flick), 45': 45.76
  analgesic activity (Tail Flick), 60': 57.38
  analgesic activity (Tail Flick), AVERAGE: 63.50 ± 5.63
[2]; 10(D) + 0.01 mg/kg (ICV)
  analgesic activity (Tail Flick), 10': 81.48
  analgesic activity (Tail Flick), 20': 100.00
  analgesic activity (Tail Flick), 30': 80.22
  analgesic activity (Tail Flick), 45': 59.24
  analgesic activity (Tail Flick), 60': 55.88
  analgesic activity (Tail Flick), AVERAGE: 75.36 ± 8.08
[3]; [5]
  Positive Total X/25: 17
  positive responses over the number treated, 10': 3/5
  positive responses over the number treated, 20': 3/5
  positive responses over the number treated, 30': 4/5
  positive responses over the number treated, 45': 4/5
  positive responses over the number treated, 60': 3/5
[3]; [6]
  Positive Total X/25: 21
  positive responses over the number treated, 10': 3/5
  positive responses over the number treated, 20': 5/5
  positive responses over the number treated, 30': 5/5
  positive responses over the number treated, 45': 5/5
  positive responses over the number treated, 60': 3/5
[3]; [7]
  Positive Total X/25: 22
  positive responses over the number treated, 10': 4/5
  positive responses over the number treated, 20': 5/5
  positive responses over the number treated, 30': 5/5
  positive responses over the number treated, 45': 4/5
  positive responses over the number treated, 60': 4/5
Endogenous opiates; 0.5 mg/kg i.v. + stress
  Average latency, 5': 6.68 ± 0.53 s
  Average latency, 10': 6.58 ± 0.46 sec.
  Average latency, 15': 5.3 ± 0.56 s
Endogenous opiates; 2 mg/kg i.v. + stress
  Average latency, 5': 9.92 ± 0.92 s
  Average latency, 10': 8.1 ± 1.0 sec.
  Average latency, 15': 6.51 ± 0.48 s
[4]; 10', compound 10 mg/kg i.p. + morphine 2 mg/kg (row Morphine: alone), ± S.E.
  percentage variation in the latency of the pain sensation, 10': 100.0 ± 0.0%
[4]; 20', compound 10 mg/kg i.p. + morphine 2 mg/kg (row Morphine: alone), ± S.E.
  percentage variation in the latency of the pain sensation, 20': 87.6 ± 12.4%
[4]; 45', compound 10 mg/kg i.p. + morphine 2 mg/kg (row Morphine: alone), ± S.E.
  percentage variation in the latency of the pain sensation, 45': 97.0 ± 3.0%
[4]; 60', compound 10 mg/kg i.p. + morphine 2 mg/kg (row Morphine: alone), ± S.E.
  percentage variation in the latency of the pain sensation, 60': 65.7 ± 21.4%
[4]; 90', compound 10 mg/kg i.p. + morphine 2 mg/kg (row Morphine: alone), ± S.E.
  percentage variation in the latency of the pain sensation, 90': 58.1 ± 21.7%
[4]; mean 10'-90', compound 10 mg/kg i.p. + morphine 2 mg/kg (row Morphine: alone)
  M(10'-90') average percentage variation: 82.9%
[4]; rat, in vivo
  Potency ratio relative to morphine alone: 2.78
  percentage variation in the latency of the pain sensation, 30': 89.2 ± 10.8
